According to patent US8758816B2, “Compositions comprising azelastine and methods of use thereof” (priority 2004, dated 2014):

Test system: patients with seasonal allergic rhinitis (SAR)
Assay: MP 428 study: individual symptom severity scores (runny nose, itchy nose, sneezing, congestion; 0-3 scale)
Format: in vivo, human
Conditions: Intent-to-Treat Population
Protocol: A two-week, randomized, double-blind study, which evaluated the effects of the co-administration of ASTELIN® (azelastine hydrochloride (HCl)) and FLONASE® (fluticasone propionate) compared to either product alone in patients with seasonal allergic rhinitis (SAR) was conducted during the 2006 Texas mountain cedar season. After a 5-day placebo lead-in period, 151 patients with moderate-to-severe allergic rhinitis symptoms were randomized to either: (1) (49 total patients) ASTELIN® (azelastine hydrochloride (HCl)) plus placebo saline nasal spray 2 sprays per nostril, 15 minutes apart, twice daily (AM & PM); (2) (50 total patients) FLONASE® (fluticasone propionate) plus placebo saline nasal spray, 2 sprays per nostril, 15 minutes apart, once daily (AM) and two sessions of placebo saline nasal spray, 2 sprays per nostril, 15 minutes apart (PM); or (3) (52 total patients) the co-administration of ASTELIN® (azelastine hydrochloride (HCl)) 2 sprays per nostril plus FLONASE® (fluticasone propionate) 2 sprays per nostril (AM), 15 minutes apart, and ASTELIN® (azelastine hydrochloride (HCl)) 2 sprays per nostril plus placebo saline nasal spray, 15 minutes apart, (PM) for a 2-week double-blind treatment period.
The primary efficacy variable was the change from baseline in the Total Nasal Symptom Score (TNSS), which comprised sneezing, itchy nose, runny nose, and nasal congestion (individual symptoms scores were assigned a value between 0 and 3, where 0=no symptoms and 3=severe symptoms). This study was not statistically designed to assess the differences between ASTELIN® and FLONASE®.
The results of the clinical trial are summarized and presented in Appendix A hereinbelow and in FIGS. 1-6. […] FIGS. 2-5 show the mean improvement in severity score (0-3 scale) from baseline for the symptoms of runny nose, itchy nose, sneezing and congestion, respectively.

CCC(=O)O[C@]1(C(=O)SCF)[C@H](C)C[C@H]2[C@@H]3C[C@H](F)C4=CC(=O)C=C[C@]4(C)[C@@]3(F)[C@@H](O)C[C@@]21C [Fluticasone, fluticasone propionate]
Percent Change from Baseline in AM and PM Combined Nasal Symptom Score: Congestion, LS Mean (Day 12): −26.02%
Percent Change from Baseline in AM and PM Combined Nasal Symptom Score: Congestion, Mean (Day 12): −27.05%
Percent Change from Baseline in AM and PM Combined Nasal Symptom Score: Congestion, Median (Day 12): −27.93%
Percent Change from Baseline in AM and PM Combined Nasal Symptom Score: Itchy Nose, LS Mean (Day 12): −29.96%
Percent Change from Baseline in AM and PM Combined Nasal Symptom Score: Itchy Nose, Mean (Day 12): −29.58%
Percent Change from Baseline in AM and PM Combined Nasal Symptom Score: Itchy Nose, Median (Day 12): −30.22%
Percent Change from Baseline in AM and PM Combined Nasal Symptom Score: Runny Nose, LS Mean (Day 12): −31.33%
Percent Change from Baseline in AM and PM Combined Nasal Symptom Score: Runny Nose, Mean (Day 12): −31.86%
Percent Change from Baseline in AM and PM Combined Nasal Symptom Score: Runny Nose, Median (Day 12): −25.62%
Percent Change from Baseline in AM and PM Combined Nasal Symptom Score: Sneezing, LS Mean (Day 12): −33.86%
Percent Change from Baseline in AM and PM Combined Nasal Symptom Score: Sneezing, Mean (Day 12): −31.18%
Percent Change from Baseline in AM and PM Combined Nasal Symptom Score: Sneezing, Median (Day 12): −35.69%
Change from Baseline in AM and PM Combined Nasal Symptom Score: Congestion, LS Mean (Day 13): −1.55
Change from Baseline in AM and PM Combined Nasal Symptom Score: Congestion, Mean (Day 13): −1.59
Change from Baseline in AM and PM Combined Nasal Symptom Score: Congestion, Median (Day 13): −1.43
Change from Baseline in AM and PM Combined Nasal Symptom Score: Itchy Nose, LS Mean (Day 13): −1.64
Change from Baseline in AM and PM Combined Nasal Symptom Score: Itchy Nose, Mean (Day 13): −1.62
Change from Baseline in AM and PM Combined Nasal Symptom Score: Itchy Nose, Median (Day 13): −1.42
Change from Baseline in AM and PM Combined Nasal Symptom Score: Runny Nose, LS Mean (Day 13): −1.78
Change from Baseline in AM and PM Combined Nasal Symptom Score: Runny Nose, Mean (Day 13): −1.78
Change from Baseline in AM and PM Combined Nasal Symptom Score: Runny Nose, Median (Day 13): −2.00
Change from Baseline in AM and PM Combined Nasal Symptom Score: Sneezing, LS Mean (Day 13): −1.98
Change from Baseline in AM and PM Combined Nasal Symptom Score: Sneezing, Mean (Day 13): −1.84
Change from Baseline in AM and PM Combined Nasal Symptom Score: Sneezing, Median (Day 13): −1.83
Percent Change from Baseline in AM and PM Combined Nasal Symptom Score: Congestion, LS Mean (Day 13): −28.59%
Percent Change from Baseline in AM and PM Combined Nasal Symptom Score: Congestion, Mean (Day 13): −28.95%
Percent Change from Baseline in AM and PM Combined Nasal Symptom Score: Congestion, Median (Day 13): −26.38%
Percent Change from Baseline in AM and PM Combined Nasal Symptom Score: Itchy Nose, LS Mean (Day 13): −31.14%
Percent Change from Baseline in AM and PM Combined Nasal Symptom Score: Itchy Nose, Mean (Day 13): −30.81%
Percent Change from Baseline in AM and PM Combined Nasal Symptom Score: Itchy Nose, Median (Day 13): −31.23%
Percent Change from Baseline in AM and PM Combined Nasal Symptom Score: Runny Nose, LS Mean (Day 13): −30.96%
Percent Change from Baseline in AM and PM Combined Nasal Symptom Score: Runny Nose, Mean (Day 13): −30.84%
Percent Change from Baseline in AM and PM Combined Nasal Symptom Score: Runny Nose, Median (Day 13): −33.33%
Percent Change from Baseline in AM and PM Combined Nasal Symptom Score: Sneezing, LS Mean (Day 13): −42.84%
Percent Change from Baseline in AM and PM Combined Nasal Symptom Score: Sneezing, Mean (Day 13): −40.87%
Percent Change from Baseline in AM and PM Combined Nasal Symptom Score: Sneezing, Median (Day 13): −35.42%
Change from Baseline in AM and PM Combined Nasal Symptom Score: Congestion, LS Mean (Day 14): −1.53
Change from Baseline in AM and PM Combined Nasal Symptom Score: Congestion, Mean (Day 14): −1.59
Change from Baseline in AM and PM Combined Nasal Symptom Score: Congestion, Median (Day 14): −1.30
Change from Baseline in AM and PM Combined Nasal Symptom Score: Itchy Nose, LS Mean (Day 14): −1.76
Change from Baseline in AM and PM Combined Nasal Symptom Score: Itchy Nose, Mean (Day 14): −1.74
Change from Baseline in AM and PM Combined Nasal Symptom Score: Itchy Nose, Median (Day 14): −1.57
Change from Baseline in AM and PM Combined Nasal Symptom Score: Runny Nose, LS Mean (Day 14): −1.89
Change from Baseline in AM and PM Combined Nasal Symptom Score: Runny Nose, Mean (Day 14): −1.88
Change from Baseline in AM and PM Combined Nasal Symptom Score: Runny Nose, Median (Day 14): −2.15
Change from Baseline in AM and PM Combined Nasal Symptom Score: Sneezing, LS Mean (Day 14): −1.87
Change from Baseline in AM and PM Combined Nasal Symptom Score: Sneezing, Mean (Day 14): −1.70
Change from Baseline in AM and PM Combined Nasal Symptom Score: Sneezing, Median (Day 14): −1.83
Percent Change from Baseline in AM and PM Combined Nasal Symptom Score: Congestion, LS Mean (Day 14): −28.37%
Percent Change from Baseline in AM and PM Combined Nasal Symptom Score: Congestion, Mean (Day 14): −29.09%
Percent Change from Baseline in AM and PM Combined Nasal Symptom Score: Congestion, Median (Day 14): −24.53%
Percent Change from Baseline in AM and PM Combined Nasal Symptom Score: Itchy Nose, LS Mean (Day 14): −33.39%
Percent Change from Baseline in AM and PM Combined Nasal Symptom Score: Itchy Nose, Mean (Day 14): −33.38%
Percent Change from Baseline in AM and PM Combined Nasal Symptom Score: Itchy Nose, Median (Day 14): −33.33%
Percent Change from Baseline in AM and PM Combined Nasal Symptom Score: Runny Nose, LS Mean (Day 14): −36.10%
Percent Change from Baseline in AM and PM Combined Nasal Symptom Score: Runny Nose, Mean (Day 14): −35.65%
Percent Change from Baseline in AM and PM Combined Nasal Symptom Score: Runny Nose, Median (Day 14): −41.75%
Percent Change from Baseline in AM and PM Combined Nasal Symptom Score: Sneezing, LS Mean (Day 14): −39.31%
Percent Change from Baseline in AM and PM Combined Nasal Symptom Score: Sneezing, Mean (Day 14): −36.07%
Percent Change from Baseline in AM and PM Combined Nasal Symptom Score: Sneezing, Median (Day 14): −33.94%
Change from Baseline in AM and PM Combined Nasal Symptom Score: Congestion, LS Mean (Overall (Day 2 to Day 14)): −1.14
Change from Baseline in AM and PM Combined Nasal Symptom Score: Congestion, Mean (Overall (Day 2 to Day 14)): −1.19
Change from Baseline in AM and PM Combined Nasal Symptom Score: Congestion, Median (Overall (Day 2 to Day 14)): −0.99
Change from Baseline in AM and PM Combined Nasal Symptom Score: Itchy Nose, LS Mean (Overall (Day 2 to Day 14)): −1.25
Change from Baseline in AM and PM Combined Nasal Symptom Score: Itchy Nose, Mean (Overall (Day 2 to Day 14)): −1.24
Change from Baseline in AM and PM Combined Nasal Symptom Score: Itchy Nose, Median (Overall (Day 2 to Day 14)): −0.95
Change from Baseline in AM and PM Combined Nasal Symptom Score: Runny Nose, LS Mean (Overall (Day 2 to Day 14)): −1.34
Change from Baseline in AM and PM Combined Nasal Symptom Score: Runny Nose, Mean (Overall (Day 2 to Day 14)): −1.36
Change from Baseline in AM and PM Combined Nasal Symptom Score: Runny Nose, Median (Overall (Day 2 to Day 14)): −1.04
Change from Baseline in AM and PM Combined Nasal Symptom Score: Sneezing, LS Mean (Overall (Day 2 to Day 14)): −1.52
Change from Baseline in AM and PM Combined Nasal Symptom Score: Sneezing, Mean (Overall (Day 2 to Day 14)): −1.44
Change from Baseline in AM and PM Combined Nasal Symptom Score: Sneezing, Median (Overall (Day 2 to Day 14)): −1.34
Percent Change from Baseline in AM and PM Combined Nasal Symptom Score: Congestion, LS Mean (Overall (Day 2 to Day 14)): −21.11%
Percent Change from Baseline in AM and PM Combined Nasal Symptom Score: Congestion, Mean (Overall (Day 2 to Day 14)): −21.68%
Percent Change from Baseline in AM and PM Combined Nasal Symptom Score: Congestion, Median (Overall (Day 2 to Day 14)): −18.72%
Percent Change from Baseline in AM and PM Combined Nasal Symptom Score: Itchy Nose, LS Mean (Overall (Day 2 to Day 14)): −25.54%
Percent Change from Baseline in AM and PM Combined Nasal Symptom Score: Itchy Nose, Mean (Overall (Day 2 to Day 14)): −25.67%
Percent Change from Baseline in AM and PM Combined Nasal Symptom Score: Itchy Nose, Median (Overall (Day 2 to Day 14)): −18.89%
Percent Change from Baseline in AM and PM Combined Nasal Symptom Score: Runny Nose, LS Mean (Overall (Day 2 to Day 14)): −23.02%
Percent Change from Baseline in AM and PM Combined Nasal Symptom Score: Runny Nose, Mean (Overall (Day 2 to Day 14)): −23.19%
Percent Change from Baseline in AM and PM Combined Nasal Symptom Score: Runny Nose, Median (Overall (Day 2 to Day 14)): −21.99%
Percent Change from Baseline in AM and PM Combined Nasal Symptom Score: Sneezing, LS Mean (Overall (Day 2 to Day 14)): −31.80%
Percent Change from Baseline in AM and PM Combined Nasal Symptom Score: Sneezing, Mean (Overall (Day 2 to Day 14)): −31.11%
Percent Change from Baseline in AM and PM Combined Nasal Symptom Score: Sneezing, Median (Overall (Day 2 to Day 14)): −33.13%
